What was measured:
[1] = known in the art; cited from earlier work
skin = experiment: Surfactant skin penetration at 5 depths after forearm controlled application technique (FCAT), liquid chromatography and mass spectrometry; type: in vivo
Description: One way to test the potential mildness of a surfactant is by looking at how it interacts with the skin. One type of interaction with the skin is skin penetration. Skin penetration looks at how much of the surfactant will penetrate into the skin. It is believed that the more the surfactant penetrates into the skin, the less mild the composition. Originally, this was believed to be largely driven by the structure of the surfactant, itself. Now, it is believed that the phase behavior associated with the surfactant can also have an impact on the penetration of the surfactant, and thus, its mildness. One surfactant reviewed for mildness is sodium trideceth-2 sulfate. […] In FIG. 1, the lighter gray (left hand column) is sodium trideceth-2 sulfate deposited on skin in a vesicle form, specifically a lamellar form as part of Composition F (below), while the darker gray (right hand column) is sodium trideceth-2 sulfate deposited in a micellar form as part of Composition E (below). The compositions were applied in accordance with a forearm controlled application technique (FCAT), a description of which is found in Ertel et al., “A forearm controlled application technique for estimating the relative mildness of personal cleansing products,” J. Soc. Cosmet. […] The levels of the target materials on the skin are then measured with a combination of liquid chromatography and mass spectrometry.

cocamide monoethanolamine
HLB value [1]: 16.8

cocamidopropyl betaine
penetration of the surfactant into skin (concentration at depth 01 to depth 05) (skin; in vivo): A similar result was seen

sodium trideceth-2 sulfate
penetration of the surfactant into skin (concentration at depth 01 to depth 05) (skin; deposited from micellar composition (Composition E) versus lamellar composition (Composition F), FCAT, FIGS. 1-3): penetrates the skin at a greater concentration at all 5 depths measured
